The values below come from PubChem BioAssay (NCI).

Some test systems named below: 786-0 renal; HL-60(TB) leukemia; IGROV1 ovarian; MOLT-4 leukemia; OVCAR-4 ovarian; SF-539 CNS; SNB-75 CNS; U251 CNS.
What all share (test): NCI tumour cell line growth inhibition, 48 h

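Compound exposure: 48 hours, 5 concentrations, 96-well plates. GI50 marks 50% less growth. TGI is the concentration that stops growth completely.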

As to `O=C(C(=O)c1cc(Br)ccc1O)c1cc(Br)ccc1O`, the GI50 in the test with 786-0 renal is 3.87 µM; in the test on HL-60(TB) leukemia, 2.2 µM; with IGROV1 ovarian, 2.57 µM; in the test on MOLT-4 leukemia it was 3.28 µM; in the test with OVCAR-4 ovarian it was 6.04 µM; in the test on SF-539 CNS, 4.01 µM. In addition, the GI50 is 3.26 µM with SNB-75 CNS and 2.8 µM with U251 CNS. In addition, the TGI in the test on 786-0 renal was 13.7 µM; with HL-60(TB) leukemia it was 6.16 µM; in the test on IGROV1 ovarian it was 8.58 µM; in the test with MOLT-4 leukemia, 19.9 µM; in the test with OVCAR-4 ovarian, over 100 µM; in the test on SF-539 CNS it was 18.6 µM. In addition, the values for the TGI with SNB-75 CNS and with U251 CNS were 29.4 µM and 9.94 µM, respectively.
With `COc1cccc(C2C(C#N)=C(N)Oc3cc4c(cc32)OCO4)c1` (stereo unspecified), the GI50 with 786-0 renal is 0.0621 µM; in the test with HL-60(TB) leukemia, 0.029 µM; in the test with IGROV1 ovarian, 0.305 µM; with MOLT-4 leukemia, 0.0745 µM; in the test on OVCAR-4 ovarian it was 0.457 µM; with SF-539 CNS, 0.0401 µM. Also, the GI50 was 0.0275 µM in the test with SNB-75 CNS and 0.0449 µM in the test with U251 CNS. For the same compound, the TGI was 24.1 µM in the test with 786-0 renal; 0.279 µM in the test with HL-60(TB) leukemia; 30.8 µM in the test on IGROV1 ovarian; 22.6 µM in the test with MOLT-4 leukemia; over 100 µM in the test with OVCAR-4 ovarian; over 33.1 µM in the test on SF-539 CNS. For the same compound, the TGI with SNB-75 CNS was 46.5 µM; in the test with U251 CNS, 12.1 µM.
As for `COc1cc(OC)cc(-c2ccc(-c3ccc(C(=N)N)cn3)s2)c1`, the GI50 in the test with 786-0 renal is 1.98 µM; in the test on HL-60(TB) leukemia, 2.06 µM; in the test with IGROV1 ovarian, 1.9 µM; with MOLT-4 leukemia it was 2.55 µM; with OVCAR-4 ovarian, 1.9 µM; with SF-539 CNS it was 1.71 µM. For the same compound, the figures for the GI50 in the test with SNB-75 CNS and in the test with U251 CNS were 1.44 µM and 1.8 µM, respectively. Besides, the TGI was 3.72 µM with 786-0 renal; 4.48 µM with HL-60(TB) leukemia; 3.73 µM with IGROV1 ovarian; 6.39 µM in the test with MOLT-4 leukemia; 3.64 µM with OVCAR-4 ovarian; 3.13 µM with SF-539 CNS. In addition, the TGI in the test with SNB-75 CNS is 2.86 µM; in the test on U251 CNS, 3.49 µM.
Take `C=C(Cn1c2ccccc2c(=O)c2ccccc21)c1ccc(C(=O)Nc2ccccc2N)cc1`: the GI50 in the test on 786-0 renal was 1.89 µM; in the test with HL-60(TB) leukemia, 0.662 µM; in the test with IGROV1 ovarian, over 19.8 µM; in the test with MOLT-4 leukemia, 0.767 µM; in the test on OVCAR-4 ovarian it was 0.0786 µM; in the test with SF-539 CNS, 3.59 µM. The results for the GI50 in the test on SNB-75 CNS and with U251 CNS were 1.08 µM and 8.1 µM, respectively. Besides, the TGI is over 100 µM in the test with 786-0 renal; over 26.9 µM with HL-60(TB) leukemia; over 100 µM in the test with IGROV1 ovarian; over 26 µM in the test with MOLT-4 leukemia; 6.06 µM with OVCAR-4 ovarian; over 100 µM in the test with SF-539 CNS. Moreover, the results for the TGI in the test with SNB-75 CNS and with U251 CNS were over 28 µM and over 100 µM, respectively.
Turning to `COC(=O)[C@]1(C)CCC[C@]2(C)[C@@H]1CCC13C[C@@H](C=CO1)[C@@H](C)CC32O` (stereo partly specified), the GI50 with 786-0 renal was 89.5 µM; in the test on HL-60(TB) leukemia, 45.4 µM; in the test with IGROV1 ovarian, over 100 µM; in the test with MOLT-4 leukemia it was 24.5 µM; in the test with OVCAR-4 ovarian, 61.5 µM; with SF-539 CNS, 0.0516 µM. For the same compound, the values for the GI50 with SNB-75 CNS and with U251 CNS were 62.2 µM and over 100 µM, respectively. Further, the TGI in the test with 786-0 renal, in the test with HL-60(TB) leukemia, in the test on IGROV1 ovarian, with MOLT-4 leukemia, with OVCAR-4 ovarian and in the test with SF-539 CNS was over 100 µM in each case. Besides, the TGI with SNB-75 CNS and in the test on U251 CNS was over 100 µM in each case.
Consider `CNCc1ccc(-c2[nH]c3cc(F)cc4c3c2CCNC4=O)cc1`, for which the GI50 in the test on 786-0 renal was 19 µM; in the test with HL-60(TB) leukemia, 20.9 µM; in the test with IGROV1 ovarian, 20.8 µM; with MOLT-4 leukemia, 21.9 µM; in the test with OVCAR-4 ovarian it was 13.5 µM; in the test with SF-539 CNS, 15 µM. In addition, the results for the GI50 in the test with SNB-75 CNS and in the test with U251 CNS were 9.49 µM and 16 µM, respectively. Further, the TGI in the test with 786-0 renal is 41.5 µM; in the test with HL-60(TB) leukemia, 41.3 µM; in the test with IGROV1 ovarian, over 72.2 µM; with MOLT-4 leukemia, 68 µM; in the test with OVCAR-4 ovarian, 47.8 µM; with SF-539 CNS, 30.6 µM. Besides, the TGI in the test on SNB-75 CNS turned out to be 27.3 µM; in the test on U251 CNS, 57.7 µM.
In the case of `C#CC#CC#CC#CC#CC#CC#CC#CC[C@@H]1OC[C@@H](COC(=O)O[C@@H](C(=O)O[C@H]2C[C@@]3(O)[C@@H](OC(=O)c4ccccc4)[C@@H]4[C@]5(OC(C)=O)CO[C@@H]5C[C@H](O)[C@@]4(C)C(=O)[C@H](OC(C)=O)C(=C2C)C3(C)C)[C@@H](NC(=O)c2ccccc2)c2ccccc2)O1`, the GI50 in the test on 786-0 renal is 1.09 µM; in the test with HL-60(TB) leukemia it was 0.163 µM; in the test on IGROV1 ovarian, 0.404 µM; in the test with MOLT-4 leukemia, 0.362 µM; in the test on OVCAR-4 ovarian it was over 8.99 µM; in the test on SF-539 CNS, 0.248 µM. Besides, the GI50 in the test with SNB-75 CNS was 0.0599 µM; in the test with U251 CNS, 0.316 µM. The TGI in the test on 786-0 renal is over 33.3 µM; in the test with HL-60(TB) leukemia it was over 33.3 µM; with IGROV1 ovarian, over 33.3 µM; with MOLT-4 leukemia, over 33.3 µM; in the test on OVCAR-4 ovarian, over 33.3 µM; in the test on SF-539 CNS, 1.99 µM. In addition, the TGI with SNB-75 CNS was 0.469 µM; in the test with U251 CNS it was over 33.3 µM.
Consider `O=c1[nH]c2ccc([N+](=O)[O-])c(Cl)c2c2ccccc12`, for which the TGI was determined as 48.3 µM with 786-0 renal; 16.6 µM with HL-60(TB) leukemia; 28.9 µM in the test with IGROV1 ovarian; 31.8 µM in the test with MOLT-4 leukemia; 24.7 µM in the test with OVCAR-4 ovarian; 4.64 µM in the test on SF-539 CNS. The TGI in the test with SNB-75 CNS was 56.7 µM; in the test with U251 CNS it was 18 µM.
Consider `CCCCC[C@@H](C/C=C/CCC(=O)NC/C(=C/Cl)[C@H]1C(=O)C(C)(C)C(=O)[C@@H](C)[C@@]1(C)O)OC`, for which the GI50 in the test on 786-0 renal is 1.58 µM; in the test on HL-60(TB) leukemia, 19.1 µM; in the test with IGROV1 ovarian, 16.4 µM; in the test on MOLT-4 leukemia it was 21 µM; in the test with OVCAR-4 ovarian, 20 µM; in the test with SF-539 CNS, 19.7 µM. In addition, the GI50 in the test on SNB-75 CNS was 20.5 µM; with U251 CNS, 20.1 µM. Moreover, the TGI in the test with 786-0 renal came to 16.9 µM; in the test with HL-60(TB) leukemia, 40.6 µM; in the test on IGROV1 ovarian it was 31.3 µM; in the test with MOLT-4 leukemia, 59.3 µM; in the test on OVCAR-4 ovarian it was 45.8 µM; with SF-539 CNS, 35.2 µM. In addition, the TGI is 44.7 µM with SNB-75 CNS and 37.1 µM in the test on U251 CNS.
